One data set has as its system A549. The data set is described as follows: Cytotoxic activity against human A549 cells assessed as reduction in cell viability incubated for 48 hrs by WST1 assay. In kind it is cell-based. Particulars: A549, 48 h. On the technique in general: Tetrazolium dyes change colour on reduction, which living cells bring about.
In data set [1] the target is T1, Acetylcholinesterase (Homo sapiens, UniProt P22303). Description: biochemical.
Description: Inhibition of acetylcholinesterase in human erythrocytes using acetylthiocholine iodide substrate by spectrophotometric Ellman's method
The target of data set [2] is Acetylcholinesterase (Electrophorus electricus, UniProt O42275).
Acetylcholinesterase (Electrophorus electricus, UniProt O42275), sequence (O42275 whole entry): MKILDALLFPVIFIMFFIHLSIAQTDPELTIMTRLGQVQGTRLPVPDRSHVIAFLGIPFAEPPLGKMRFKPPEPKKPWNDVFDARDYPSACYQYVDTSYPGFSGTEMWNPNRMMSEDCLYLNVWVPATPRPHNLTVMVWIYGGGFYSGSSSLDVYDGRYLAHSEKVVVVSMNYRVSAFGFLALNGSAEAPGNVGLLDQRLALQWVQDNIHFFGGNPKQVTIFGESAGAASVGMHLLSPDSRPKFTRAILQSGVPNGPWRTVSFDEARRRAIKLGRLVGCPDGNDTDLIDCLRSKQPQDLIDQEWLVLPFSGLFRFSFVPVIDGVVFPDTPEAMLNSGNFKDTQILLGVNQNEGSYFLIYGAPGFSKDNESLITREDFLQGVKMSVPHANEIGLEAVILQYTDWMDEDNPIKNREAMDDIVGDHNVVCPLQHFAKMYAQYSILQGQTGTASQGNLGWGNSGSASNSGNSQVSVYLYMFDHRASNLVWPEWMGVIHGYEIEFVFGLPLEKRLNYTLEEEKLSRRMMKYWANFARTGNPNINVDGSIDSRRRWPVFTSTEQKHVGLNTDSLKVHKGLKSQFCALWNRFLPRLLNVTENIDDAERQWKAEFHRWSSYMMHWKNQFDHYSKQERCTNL
Description: Inhibition of electric eel AChE using ATC iodide substrate by Ellman's assay
Data set [3] can be described thus: Cytotoxic activity against human A549 cells assessed as cell viability at 100 nM incubated for 48 hrs by WST1 assay. In kind it is cell-based. Particulars: read-out: Activity.
The next data set addresses Cholinesterase (Equus caballus, UniProt P81908).
The test system of data set [4] is acetylcholinesterase. The data set is described as follows: Selectivity index, ratio of IC50 for cytotoxic activity against human A549 cells to IC50 for acetylcholinesterase in human erythrocytes. Particulars: read-out: Ratio IC50. In kind it is toxicity, cell-based.
Data set [5] has as its target T1, Acetylcholinesterase. The data set is described as follows: Inhibition of AChE (unknown origin) assessed as enzyme-mediated Amyloid beta peptide (1 to 42) aggregation incubated for 5 hrs by thioflavin-T based fluorometric assay.

T1 sequence (P22303 whole entry): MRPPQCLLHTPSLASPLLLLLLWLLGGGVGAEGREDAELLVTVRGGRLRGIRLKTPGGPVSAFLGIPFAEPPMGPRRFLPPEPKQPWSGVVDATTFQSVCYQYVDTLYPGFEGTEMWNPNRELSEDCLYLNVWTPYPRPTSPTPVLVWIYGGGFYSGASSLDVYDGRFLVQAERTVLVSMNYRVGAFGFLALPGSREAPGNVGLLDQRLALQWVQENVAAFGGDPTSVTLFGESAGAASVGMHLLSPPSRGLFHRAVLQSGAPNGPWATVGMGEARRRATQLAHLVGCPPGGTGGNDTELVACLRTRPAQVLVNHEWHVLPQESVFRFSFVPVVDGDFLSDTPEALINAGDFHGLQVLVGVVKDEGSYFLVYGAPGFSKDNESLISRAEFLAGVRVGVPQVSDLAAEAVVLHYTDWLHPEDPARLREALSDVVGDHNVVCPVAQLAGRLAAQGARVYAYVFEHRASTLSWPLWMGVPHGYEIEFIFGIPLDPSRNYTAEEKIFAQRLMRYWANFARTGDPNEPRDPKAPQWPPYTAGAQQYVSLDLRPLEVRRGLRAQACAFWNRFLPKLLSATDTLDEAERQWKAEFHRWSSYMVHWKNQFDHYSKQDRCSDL
Cholinesterase, sequence (P81908 whole entry): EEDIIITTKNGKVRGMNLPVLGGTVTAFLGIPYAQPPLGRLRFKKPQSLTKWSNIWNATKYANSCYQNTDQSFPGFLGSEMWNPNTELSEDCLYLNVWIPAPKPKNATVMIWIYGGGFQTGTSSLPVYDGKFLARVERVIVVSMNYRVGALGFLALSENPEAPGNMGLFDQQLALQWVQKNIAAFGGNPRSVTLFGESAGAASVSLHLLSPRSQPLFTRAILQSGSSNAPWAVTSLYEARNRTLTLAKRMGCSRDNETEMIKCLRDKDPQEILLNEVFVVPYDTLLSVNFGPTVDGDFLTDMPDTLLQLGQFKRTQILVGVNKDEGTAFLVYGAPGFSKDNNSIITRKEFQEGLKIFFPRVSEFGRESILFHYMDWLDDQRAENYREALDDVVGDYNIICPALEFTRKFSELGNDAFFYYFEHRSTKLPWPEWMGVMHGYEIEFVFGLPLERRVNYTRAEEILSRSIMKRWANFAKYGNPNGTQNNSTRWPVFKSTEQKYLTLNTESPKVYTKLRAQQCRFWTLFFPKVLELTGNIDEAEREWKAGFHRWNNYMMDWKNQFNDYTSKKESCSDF

As a reminder, the IC50 is the concentration that gives 50% inhibition. On to `CN(C)c1ccc(C(=O)NCCNc2c3c(nc4ccccc24)CCCC3)cc1`, for which the half-inhibitory concentration (IC50) is 39100 nM in the data set on A549; 142 nM at Acetylcholinesterase [1]; 0.4 nM on Acetylcholinesterase [2]; 0.5 nM on Cholinesterase; 12100 nM on Acetylcholinesterase [5]. In addition, the viability at 48 h, 0.1 µM in data set [3] came to 93.7%. Further, the selectivity ratio in the data set on acetylcholinesterase [4] worked out at 275.
As to `CN(C)c1ccc(C(=O)NCCCNc2c3c(nc4ccccc24)CCCC3)cc1`, the IC50 in the data set on A549 came out at 46300 nM; against Acetylcholinesterase [1], 19 nM; against Acetylcholinesterase [2], 200 nM; at Cholinesterase, 73.3 nM. Moreover, the viability at 48 h, 0.1 µM in data set [3] came to 91.3%. Further, the selectivity ratio in the data set with acetylcholinesterase [4] turned out to be 2500.
With `CN(C)c1ccc(C(=O)NCCCCNc2c3c(nc4ccccc24)CCCC3)cc1`, the half-inhibitory concentration (IC50) against Acetylcholinesterase [1] amounted to 295 nM; against Acetylcholinesterase [2], 200 nM; against Cholinesterase it was 7 nM.
On to `CN(C)c1ccc(C(=O)NCCCCCNc2c3c(nc4ccccc24)CCCC3)cc1`, for which the figures for the IC50 against Acetylcholinesterase [1], against Acetylcholinesterase [2] and against Cholinesterase were 357 nM, 86.7 nM and 3.7 nM, respectively.
`CN(C)c1ccc(C(=O)NCCCCCCNc2c3c(nc4ccccc24)CCCC3)cc1`: the figures for the concentration for half-maximal inhibition (IC50) on Acetylcholinesterase [1], on Acetylcholinesterase [2] and against Cholinesterase were 64 nM, 0.6 nM and 1.1 nM, respectively.
Consider `CN(C)c1ccc(C(=O)NCCCCCCCNc2c3c(nc4ccccc24)CCCC3)cc1`, for which the IC50 worked out at 75 nM at Acetylcholinesterase [1], 167 nM against Acetylcholinesterase [2] and 210 nM against Cholinesterase.
On the same counts, the results for `CN(C)c1ccc(C(=O)NCCCCCCCCNc2c3c(nc4ccccc24)CCCC3)cc1` are 77 nM, 0.5 nM and 0.7 nM.
As for `CN(C)c1ccc(C(=O)NCCCCCCCCCNc2c3c(nc4ccccc24)CCCC3)cc1`, the values for the IC50 at Acetylcholinesterase [1], against Acetylcholinesterase [2] and against Cholinesterase were 125 nM, 0.5 nM and 0.7 nM, respectively.

The values are drawn from ChEMBL document CHEMBL3603732, “Synthesis, biological evaluation and molecular modeling of new tetrahydroacridine derivatives as potential multifunctional agents for the treatment of Alzheimer's disease” (Bioorg Med Chem, 2015).
